Results from patent publication US9951060B2, “2-acylaminothiazole derivative or salt thereof” (ASTELLAS PHARMA INC., priority 2014, dated 2018).
Structures can show the parent of a compound that is named as a salt.

Key:
rat isolated bladder = experiment: Test Example 3: effect on electrical field stimulation-induced contraction in rat isolated bladder; settings: 10 μM test substance; AUC of contraction, value before treatment = 100%; SD female rat bladder
Experimental: Test Example 3: Effect on Electrical Field Stimulation-Induced Contraction in Rat Isolated Bladder
As an effect on the nerve stimulation-dependent bladder contraction in in vitro, the effect of the Example compounds of the present invention in the electrical field stimulation-induced contraction of the rat isolated bladder was measured by the following method. That is, a bladder specimen having a width of about 2 mm and a length of about 10 mm in the longitudinal direction from the bladder isolated from a Sprague-Dawley (SD) female rat (Japan SLC, Inc.) was prepared. The prepared bladder specimen was suspended in an organ bath filled with 10 mL of a Krebs-Henseleite solution. The Krebs-Henseleite solution was aerated at 95% 02 and 5% CO2, and kept at 37° C. After carrying out stabilization at an initial tension of 1 g, the contraction was caused twice with 60 mM KCl. After stabilization of the specimen with a Krebs-Henseleite solution, the contraction was caused by carrying out electrical field stimulation at 20 V with an electrical stimulation device (Nihon Kohden) (a stimulation frequency of 8 Hz, a pulse width of 0.3 msec, and a stimulation time of 10 seconds). By repeating the transmural electrical stimulation at an interval of 2 minutes, a voltage was adjusted to obtain a contraction height of approximately 50% of the contractile response at 20 V. After the contraction by electrical field stimulation had been stabilized, 10 μL of the test substances dissolved in 100% dimethyl sulfoxide in advance (final concentrations of 3 μM, 10 μM, and 30 μM) was added thereto. The test substances were cumulatively administered at the following concentrations after the low-concentration contractile response had been stabilized. The response was taken into a personal computer through a PowerLab (registered trademark) (AD Instruments, Inc.), and analyzed by LabChart (registered trademark) (AD Instruments, Inc.). When the area under the response (area under curve, AUC) in each contraction response was calculated and the value before treatment with the test substance was taken as 100%, the enhancement rate (% of pre) of the isolated bladder contractions after treatment with the test substance was calculated.

[1] = molecular target: human muscarinic M3 receptor (Homo sapiens, UniProt P20309)
Chain of human muscarinic M3 receptor (P20309 whole entry): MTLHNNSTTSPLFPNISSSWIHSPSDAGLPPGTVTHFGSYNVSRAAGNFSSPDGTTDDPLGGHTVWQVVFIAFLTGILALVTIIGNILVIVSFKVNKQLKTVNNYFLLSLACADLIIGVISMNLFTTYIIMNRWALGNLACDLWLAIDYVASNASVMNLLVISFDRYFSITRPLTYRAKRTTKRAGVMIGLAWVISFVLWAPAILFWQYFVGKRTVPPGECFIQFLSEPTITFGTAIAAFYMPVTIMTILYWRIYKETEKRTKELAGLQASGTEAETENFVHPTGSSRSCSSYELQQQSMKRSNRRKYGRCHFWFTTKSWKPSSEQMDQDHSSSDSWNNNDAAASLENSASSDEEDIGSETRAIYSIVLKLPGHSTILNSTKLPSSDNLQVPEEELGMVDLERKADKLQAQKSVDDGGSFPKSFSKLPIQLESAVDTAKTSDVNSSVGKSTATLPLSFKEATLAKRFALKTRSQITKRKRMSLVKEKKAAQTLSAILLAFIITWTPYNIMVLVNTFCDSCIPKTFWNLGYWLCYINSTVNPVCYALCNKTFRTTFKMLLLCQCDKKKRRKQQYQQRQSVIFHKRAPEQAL
Excerpt: Test Example 1: Evaluation of Muscarinic M3 Receptor Positive Allosteric Modulator Activity
a) Construction of Vector Expressing Human Muscarinic M3 Receptor
A human muscarinic M3 receptor gene (GenBank Accession No.: NM_000740.2) was introduced into an expression vector pcDNA3.1™ (Life Technologies).
b) Construction of Cells Stably Expressing Human Muscarinic M3 Receptor
A vector expressing a human muscarinic M3 receptor was introduced into a CHO—K1 cell (ATCC No.: CCL-61). The introduction was carried out according to the attached instructions, using a transfection reagent, Lipofectoamine (registered trademark) 2000 Reagent (Life Technologies). The cells were incubated in an alpha Modified Eagle Minimum Essential Medium (α-MEM) including 2 mM glutamine, 10% fetal bovine serum, and 2.0 mg/mL Geneticin (registered trademark) (Life Technologies) for 4 weeks to acquire a drug-resistant clone.
c) Measurement of Intracellular Ca^2+ Concentration
The cells obtained in b) above were suspended in an α-MEM including 2 mM glutamine, 10% fetal bovine serum, and 0.2 mg/mL Geneticin (registered trademark) to the amount from 1.2 to 1.5×10^4 cells/well the day before the experiment, dispensed into a 384-well plate (Model No. 355962, BD Biosciences), and incubated overnight at 37° C. and 5% CO2. The medium was replaced with a loading buffer (an assay buffer (Hank's balanced salt solution (HBSS), 1 g/L BSA, 20 mM HEPES (pH 7.5), and 2.5 mM probenecid), including 3.1 μM Fluo 4-AM (Dojindo Laboratories) and incubated for about 2 hours at room temperature. Thereafter, the cells were washed with a plate washer ELx405™ (BIO-TEK Instrument, Inc.) set with the assay buffer, and set in an intracellular Ca^2+ concentration measuring system (FLIPR^tetra (registered trademark), Molecular Device Co.). The test substances (final concentration of 1 μM or 10 μM) and carbachol (Sigma, final concentration of 0.0024 nM to 10 μM) which had each been dissolved in the assay buffer in advance were set in a FLIPR^tetra (registered trademark). The test substances were added to the cells in the device and after about 5 minutes, carbachol was added to the cells. An increase rate of the intracellular Ca^2+ concentration by carbachol was measured (excitement wavelength of 470 nm to 495 nm and a fluorescence wavelength of 515 nm to 575 nm).
For the muscarinic M3 receptor-positive allosteric modulator activity, a shift toward a lower concentration side of a carbachol concentration-response curve by the test substance was used as an index. […] For example, when the EC50 value of carbachol in the absence of the test substance was 0.1 μM and the EC50 value of carbachol in the presence of the test substance was 0.01 μM, the value of the muscarinic M3 receptor-positive allosteric modulator activity becomes 10, showing that the test substance causes a 10-fold shift in the EC50 value toward to the low concentration side.

Compound	Enhancement rate (% of pre) of isolated bladder contractions (rat isolated bladder)	muscarinic M3 receptor-positive allosteric modulator activity, 1 μM (-fold shift) [1]	muscarinic M3 receptor-positive allosteric modulator activity, 10 μM (-fold shift) [1]
C[C@@H]1CC[C@@H](C)N1Cc1sc(NC(=O)c2cnc(N3CCN(CCC(=O)O)CC3)cn2)nc1-c1cc(F)cc(C(F)(F)F)c1 [Example 119]	154 % of pre	110 -fold shift	503 -fold shift
C[C@@H]1CCCN1Cc1sc(NC(=O)c2cnc(N3CCN(CCC(=O)O)CC3)cn2)nc1-c1cc(C2CC2)cc(C(F)(F)F)c1 [Example 67]	116 % of pre	40 -fold shift	114 -fold shift
C[C@@H]1CCCN1Cc1sc(NC(=O)c2cnc(N3CCN(CC(=O)O)CC3)cn2)nc1-c1cc(Cl)cs1 [Example 51]	151 % of pre	102 -fold shift	287 -fold shift
C[C@@H]1CCCN1Cc1sc(NC(=O)c2cnc(N3CCN(CCC(=O)O)CC3)cn2)nc1-c1ccc(F)c(C(F)(F)F)c1 [Example 60]	144 % of pre	33 -fold shift	235 -fold shift
C[C@@H]1CCCN1Cc1sc(NC(=O)c2cnc(N3CCN(CCC(=O)O)CC3)cn2)nc1-c1cc(F)cc(C(F)(F)F)c1 [Example 49]	153 % of pre	67 -fold shift	224 -fold shift
C[C@@H]1CCCN1Cc1sc(NC(=O)c2cnc(N3CCN(CCC(=O)O)CC3)cn2)nc1-c1ccc(Cl)c(C(F)(F)F)c1 [Example 15]	124 % of pre	31 -fold shift	159 -fold shift
COc1ccc(-c2nc(NC(=O)c3cnc(N4CCN(CCC(=O)O)[C@@H](C)C4)cn3)sc2CN2CCC[C@H]2C)cc1C(F)(F)F [Example 10]	161 % of pre	21 -fold shift	87 -fold shift
C[C@@H]1CCCN1Cc1sc(NC(=O)c2cnc(N3CCN(CCC(=O)O)C[C@H]3C)cn2)nc1-c1cc(C(F)(F)F)cs1 [Example 3, 3-[(3R)-3-methyl-4-{5-[(5-{[(2R)-2-methylpyrrolidin-1-yl]methyl}-4-[4-(trifluoromethyl)thiophen-2-yl]-1,3-thiazol-2-yl)carbamoyl]pyrazin-2-yl}piperazin-1-yl]propanoic acid dihydrochloride]	152 % of pre	101 -fold shift	253 -fold shift
CC(C(=O)O)N1CCN(c2cnc(C(=O)Nc3nc(-c4cc(F)cc(C(F)(F)F)c4)c(CN4CCC[C@H]4C)s3)cn2)CC1 (stereo partly drawn) [Example 64]	162 % of pre	23 -fold shift	128 -fold shift
CCN(CC)Cc1sc(NC(=O)c2cnc(N3CCN(CCC(=O)O)CC3)cn2)nc1-c1cc(F)cc(C(F)(F)F)c1 [Example 109]	183 % of pre	30 -fold shift	191 -fold shift
CC[C@@H]1CCCN1Cc1sc(NC(=O)c2cnc(N3CCN(CCC(=O)O)[C@H](C)C3)cn2)nc1-c1cc(Cl)cs1 [Example 143]	140 % of pre	65 -fold shift	81 -fold shift
COc1c(Cl)cc(-c2nc(NC(=O)c3cnc(N4CCN(CCC(=O)O)CC4)cn3)sc2CN2CCC[C@H]2C)cc1Cl [Example 43]	179 % of pre	76 -fold shift	224 -fold shift
C[C@@H]1CCCN1Cc1sc(NC(=O)c2cnc(N3CCN(CCC(=O)O)CC3)cn2)nc1-c1cc(Cl)cc(C(F)(F)F)c1 [Example 11]	123 % of pre	33 -fold shift	226 -fold shift
C[C@@H]1CCCN1Cc1sc(NC(=O)c2cnc(N3CCN(CCC(=O)O)CC3)cn2)nc1-c1cc(Cl)cs1 [Example 82]	158 % of pre	11 -fold shift	43 -fold shift
C[C@@H]1CCCN1Cc1sc(NC(=O)c2cnc(N3CCN(CCCC(=O)O)CC3)cn2)nc1-c1cc(F)cc(C(F)(F)F)c1 [Example 21]	141 % of pre	25 -fold shift	149 -fold shift
C[C@@H]1CCCN1Cc1sc(NC(=O)c2cnc(N3CCN(CC(=O)O)CC3)cn2)nc1-c1cc(Cl)cc(C(F)(F)F)c1 [Example 13]	126 % of pre	43 -fold shift	326 -fold shift
COc1cc(-c2nc(NC(=O)c3cnc(N4CCN(CCC(=O)O)CC4)cn3)sc2CN2CCC[C@H]2C)cc(C(F)(F)F)c1 [Example 52]	132 % of pre	36 -fold shift	196 -fold shift
CCOc1ccc(-c2nc(NC(=O)c3cnc(N4CCN(CCC(=O)O)C[C@H]4C)cn3)sc2CN2CCC[C@H]2CC)cc1C(F)(F)F [Example 133]	151 % of pre	30 -fold shift	164 -fold shift
C[C@@H]1CCCN1Cc1sc(NC(=O)c2cnc(N3CCN(CC(=O)O)CC3)cn2)nc1-c1ccc(F)c(C(F)(F)F)c1 [Example 61]	176 % of pre	35 -fold shift	229 -fold shift
C[C@@H]1CCCN1Cc1sc(NC(=O)c2cnc(N3CCN(CCC(=O)O)[C@@H](C)C3)cn2)nc1-c1cc(Cl)cs1 [Example 142]	196 % of pre	52 -fold shift	160 -fold shift
C[C@@H]1CCCN1Cc1sc(NC(=O)c2cnc(N3CCN(CCC(=O)O)CC3)cn2)nc1-c1cc(Cl)cs1 [Example 50]	183 % of pre	108 -fold shift	190 -fold shift
C[C@@H]1CCCN1Cc1sc(NC(=O)c2cnc(N3CCN(CCC(=O)O)C[C@H]3C)cn2)nc1-c1cc(F)cc(C(F)(F)F)c1 [Example 140]	161 % of pre	28 -fold shift	158 -fold shift
C[C@@H]1CCCN1Cc1sc(NC(=O)c2cnc(N3CCN(CCC(=O)O)[C@@H](C)C3)cn2)nc1-c1cc(C(F)(F)F)cs1 [Example 95]	150 % of pre	91 -fold shift	233 -fold shift
CC[C@@H]1CCCN1Cc1sc(NC(=O)c2cnc(N3CCN(CCC(=O)O)CC3)cn2)nc1-c1cccc(C(F)(F)F)c1 [Example 65]	127 % of pre	24 -fold shift	90 -fold shift
CC[C@@H]1CCCN1Cc1sc(NC(=O)c2cnc(N3CCN(CCC(=O)O)CC3)cn2)nc1-c1ccc(OC)c(C(F)(F)F)c1 [Example 42]	158 % of pre	39 -fold shift	141 -fold shift
